This is an account of results in patent US12708602B2, “Fermentation extracts, cosmetic composition and manufacturing method of fermentation extracts” (bioMOA Medical, Inc., priority 2023, dated 2026).

Molecules are shown by their SMILES.

The conditions of this data set: dissolved in purified water (FIG. 3).

For `N[C@@H](CCC(=O)N[C@@H](CS)C(=O)NCC(=O)O)C(=O)O` [glutathione powder, glutathione], the precipitation result was “precipitation occurred from the first day”.
